Experimental data taken from the supplement of paper PMC10307832.

Tests used:
Experiment in all cases: relative viability (nuclei count vs DMSO), 5 days (fraction); higher = more cells survive
RU-SKI 43 = compound: CC[C@@H](C)CNCC(=O)N1CCC2=C([C@@H]1COC3=CC=CC(=C3)C)C=CS2 [RU-SKI 43]
In short: (§1)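 Hoechst staining, done together with fixation and permeabilisation, marked nuclei for 4× imaging and MetaXpress counting. This followed 5 days without medium change after lung cancer cell lines, kept overnight at 37 °C in 1536-well plates, were pinned with five library-drug doses (not always all listed) spaced by √10 on vehicle-anchored plates. Viability is the ratio of treated-well to vehicle-well nuclei, expressed as a median across plates. Plates passed only at control CV below 25% with at least one doubling.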

Irinotecan = compound: CCc1c2c(nc3ccc(OC(=O)N4CCC(N5CCCCC5)CC4)cc13)-c1cc3c(c(=O)n1C2)COC(=O)[C@]3(O)CC [Irinotecan]
In short: as §1

MK-8033 = compound: Cn1cc(-c2cnc3ccc4ccc(CS(=O)(=O)NCc5ccccn5)cc4c(=O)c3c2)cn1 [MK-8033]
In short: as §1

Irinotecan + Dasatinib = compound: CCc1c2c(nc3ccc(OC(=O)N4CCC(N5CCCCC5)CC4)cc13)-c1cc3c(c(=O)n1C2)COC(=O)[C@]3(O)CC [Irinotecan] + Cc1nc(Nc2ncc(C(=O)Nc3c(C)cccc3Cl)s2)cc(N2CCN(CCO)CC2)n1 [Dasatinib] (partner 0.075 µM)
In short: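 Lung cancer cell lines were pin-tool dosed in 1536-well plates on the day after seeding, with either a lone drug or a fixed anchor-drug dose plus five library-drug doses (not always all listed) in √10 steps. Nuclei were counted on 4× images after 5 days. Relative viability is the ratio of treated-well to vehicle-well nuclei counts, with each value a median of duplicate plates.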

| Cell Line | relative viability (RU-SKI 43; 0.1 µM) | relative viability (RU-SKI 43; 0.3162 µM) | relative viability (RU-SKI 43; 1 µM) | relative viability (RU-SKI 43; 3.162 µM) | relative viability (RU-SKI 43; 10 µM) | relative viability (Irinotecan; 0.6325 µM) | relative viability (Irinotecan; 2 µM) | relative viability (Irinotecan; 6.325 µM) | relative viability (Irinotecan; 20 µM) | relative viability (MK-8033; 0.02 µM) | relative viability (MK-8033; 0.06325 µM) | relative viability (MK-8033; 0.2 µM) | relative viability (MK-8033; 0.6325 µM) | relative viability (MK-8033; 2 µM) | relative viability (Irinotecan + Dasatinib; first compound 0.6325 µM) | relative viability (Irinotecan + Dasatinib; first compound 2 µM) | relative viability (Irinotecan + Dasatinib; first compound 6.325 µM) | relative viability (Irinotecan + Dasatinib; first compound 20 µM) |
| --- | --- | --- | --- | --- | --- | --- | --- | --- | --- | --- | --- | --- | --- | --- | --- | --- | --- | --- |
| NCI-H1651 | 0.931 | 1.01 | 1.08 | 1.09 | 0.927 | 0.676 | 0.779 | 0.458 | 0.172 | 1.01 | 0.944 | 0.934 | 1.06 | 0.971 | 0.319 | 0.311 | 0.281 | 0.112 |
| NCI-H1666 | 0.953 | 0.954 | 0.967 | 1.04 | 0.865 | 0.889 | 0.763 | 0.573 | 0.459 | 0.984 | 0.94 | 0.945 | 0.947 | 0.96 | 0.864 | 0.657 | 0.486 | 0.348 |
| NCI-H1734 | 0.961 | 1.05 | 1.03 | 1.07 | 0.88 | – | 0.77 | 0.195 | 0.181 | 1.1 | 0.845 | 0.944 | 0.993 | 0.985 | – | 0.385 | 0.218 | 0.155 |
| NCI-H1755 | 1.03 | 1.03 | 1.1 | 1.1 | 1 | 0.966 | 0.984 | 0.433 | 0.408 | 0.982 | 1.02 | 0.945 | 0.973 | 0.974 | 0.373 | 0.45 | 0.308 | 0.271 |
| NCI-H1792 | 0.844 | 1.08 | 1.77 | 0.889 | 1.03 | 0.862 | 0.933 | 0.393 | 0.354 | 1.22 | 0.958 | 0.804 | 0.9 | 0.805 | 0.803 | 0.747 | 0.506 | 0.192 |
| NCI-H1793 | 0.986 | 0.939 | 1 | 0.894 | 0.755 | – | 0.905 | 0.463 | 0.227 | 0.935 | – | 0.761 | 0.792 | 0.8 | – | 0.385 | 0.252 | 0.234 |
| NCI-H1915 | 1.06 | 1.11 | 1.08 | 1 | 1.02 | 0.353 | 0.475 | 0.224 | 0.214 | 1 | 0.916 | 0.963 | 1.02 | 0.959 | 0.215 | 0.221 | 0.132 | 0.128 |
| NCI-H1944 | 1.01 | 0.98 | 1.08 | 0.968 | 0.932 | 0.67 | 0.559 | 0.244 | 0.194 | 0.927 | 0.768 | 0.982 | 0.968 | 1.03 | 0.151 | 0.189 | 0.121 | 0.107 |
| NCI-H1975 | 1.07 | 1.25 | 1.05 | 1.01 | 0.922 | 0.894 | 1.04 | 0.622 | 0.196 | 0.892 | 0.905 | 0.862 | 0.854 | 0.931 | 0.28 | 0.469 | 0.305 | 0.155 |
| NCI-H1993 | 0.927 | 0.899 | 1.06 | 0.924 | 0.925 | 0.596 | 0.889 | 0.667 | 0.628 | 0.925 | 0.736 | 0.663 | 0.736 | 0.727 | 0.549 | 0.601 | 0.484 | 0.603 |
| NCI-H2009 | 1.02 | 1.07 | 1.07 | 1.06 | 1.01 | 0.716 | 0.733 | 0.272 | 0.153 | 1.05 | 1.01 | 0.953 | 0.945 | 0.961 | 0.284 | 0.287 | 0.182 | 0.116 |
| NCI-H2023 | 1.06 | 1.47 | 1.11 | 1.1 | 0.905 | 0.881 | 0.829 | 0.217 | 0.0696 | 0.941 | 0.88 | 0.838 | 0.846 | 0.715 | 0.595 | 0.67 | 0.241 | 0.0645 |
| NCI-H2085 | 0.981 | 1.01 | 1.02 | 0.975 | 0.927 | 0.824 | 0.909 | 0.75 | 0.529 | 0.931 | 0.987 | 0.959 | 0.942 | 0.984 | 0.221 | 0.23 | 0.266 | 0.273 |
| NCI-H2087 | 1.06 | 1.11 | 1.17 | 0.995 | 0.933 | 0.406 | 0.496 | 0.187 | 0.203 | 1.2 | 1.02 | 0.953 | 1.08 | 1.1 | 0.392 | 0.535 | 0.19 | 0.196 |
| NCI-H2126 | 1.01 | 0.99 | 1.05 | 1.04 | 0.985 | – | 1.07 | 0.552 | 0.387 | 0.978 | 0.901 | 0.911 | 0.976 | 1.02 | – | 0.55 | 0.41 | 0.135 |
